Test results taken from PubChem BioAssay AID248 (DTP/NCI, 2004).
Values joined by “and” are separate entries in the source; they are usually repeats but may differ in a detail not shown here. Identical values can stand only once. Toxic doses and inconclusive results are not listed. No stated cut-off is given here; in the data, active means T/C of 150% or more; inactive means T/C below 125%.

Test system: L1210 leukemia ip in BDF1 mice, survival T/C
Assay: NCI In Vivo Anticancer Drug Screen. Data for tumor model L1210 Leukemia (intraperitoneal) in B6D2F1 (BDF1) mice
Details: endpoint: mean survival time, higher = longer survival
Outline: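 Tumor was transplanted into mice, which were then dosed with test compound or vehicle alone. Survival was recorded for each group, and the treated figure was expressed relative to the control figure.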

[1] = dose: 100.0 mg/kg/injection, schedule: Q04DX003 (ip), vehicle: saline
[2] = dose: 200.0 mg/kg/injection, schedule: Q04DX003 (ip), vehicle: saline
[3] = dose: 400.0 mg/kg/injection, schedule: Q04DX003 (ip), vehicle: saline
[4] = dose: 100.0 mg/kg/injection, schedule: Q04DX002 (ip), vehicle: Klucel (hydroxypropylcellulose) (HPC)
[5] = dose: 100.0 mg/kg/injection, schedule: Q04DX003 (ip), vehicle: Klucel (hydroxypropylcellulose) (HPC)
[6] = dose: 200.0 mg/kg/injection, schedule: Q04DX002 (ip), vehicle: Klucel (hydroxypropylcellulose) (HPC)
[7] = dose: 400.0 mg/kg/injection, schedule: Q04DX002 (ip), vehicle: Klucel (hydroxypropylcellulose) (HPC)
[8] = dose: 100.0 mg/kg/injection, schedule: Q04DX003 (ip), vehicle: saline with Tween-80
[9] = dose: 200.0 mg/kg/injection, schedule: Q04DX003 (ip), vehicle: saline with Tween-80
[10] = dose: 400.0 mg/kg/injection, schedule: Q04DX003 (ip), vehicle: saline with Tween-80
[11] = dose: 100.0 mg/kg/injection, schedule: Q01DX001 (ip), vehicle: saline with Tween-80
[12] = dose: 200.0 mg/kg/injection, schedule: Q01DX001 (ip), vehicle: saline with Tween-80
[13] = dose: 400.0 mg/kg/injection, schedule: Q01DX001 (ip), vehicle: saline with Tween-80

Measured: T/C

CCOP(=O)(CC)C(Cl)(Cl)Cl (stereo not drawn)
inactive: dose: 100.0 mg/kg/injection, schedule: Q04DX002 (ip), vehicle: saline with Tween-80 93 % of control | dose: 200.0 mg/kg/injection, schedule: Q04DX002 (ip), vehicle: saline with Tween-80 90 % of control | dose: 400.0 mg/kg/injection, schedule: Q04DX002 (ip), vehicle: saline with Tween-80 93 % of control

CSc1nc(Cl)cc(Sc2nc(N)nc3nc[nH]c23)n1
inactive: dose: 100.0 mg/kg/injection, schedule: Q01DX Z (ip), vehicle: methylcellulose (MC) 110 % of control

COC(=O)C1CCCC(=O)C1C(=O)OC (stereo not drawn)
inactive: dose: 100.0 mg/kg/injection, schedule: Q04DX003 (ip), vehicle: other 106 % of control | dose: 200.0 mg/kg/injection, schedule: Q04DX003 (ip), vehicle: other 97 % of control | dose: 400.0 mg/kg/injection, schedule: Q04DX003 (ip), vehicle: other 104 % of control

C1CC(=NN=C2CCSCC2)CCS1
inactive: [1] 96 % of control | [2] 94 % of control | [3] 123 % of control

O=[N+]([O-])c1cccc2cncc(Br)c12
inactive: dose: 100.0 mg/kg/injection, schedule: Q01DX001 (ip), vehicle: other 95 % of control | dose: 200.0 mg/kg/injection, schedule: Q01DX001 (ip), vehicle: other 106 % of control | dose: 400.0 mg/kg/injection, schedule: Q01DX001 (ip), vehicle: other 104 % of control

O=C(Nc1cccc(O)c1)Nc1ccccc1F
inactive: dose: 100.0 mg/kg/injection, schedule: Q01DX001 (ip), vehicle: Klucel (hydroxypropylcellulose) (HPC) 102 % of control | dose: 100.0 mg/kg/injection, schedule: Q01DX009 (ip), vehicle: Klucel (hydroxypropylcellulose) (HPC) 102 % of control and 90 % of control | [4] 97 % of control and 92 % of control | [5] 103 % of control | dose: 200.0 mg/kg/injection, schedule: Q01DX001 (ip), vehicle: Klucel (hydroxypropylcellulose) (HPC) 104 % of control | dose: 200.0 mg/kg/injection, schedule: Q01DX009 (ip), vehicle: Klucel (hydroxypropylcellulose) (HPC) 96 % of control and 101 % of control | [6] 98 % of control and 99 % of control | dose: 200.0 mg/kg/injection, schedule: Q04DX003 (ip), vehicle: Klucel (hydroxypropylcellulose) (HPC) 110 % of control | dose: 400.0 mg/kg/injection, schedule: Q01DX001 (ip), vehicle: Klucel (hydroxypropylcellulose) (HPC) 104 % of control | dose: 400.0 mg/kg/injection, schedule: Q01DX009 (ip), vehicle: Klucel (hydroxypropylcellulose) (HPC) 98 % of control and 101 % of control | [7] 115 % of control and 89 % of control | dose: 400.0 mg/kg/injection, schedule: Q04DX003 (ip), vehicle: Klucel (hydroxypropylcellulose) (HPC) 98 % of control

O=C(NCc1cccc2ccccc12)Nc1ccccc1Cl
inactive: [4] 100 % of control | [6] 104 % of control | [7] 96 % of control

COC(=O)C1C(=O)CC2(C)CCCCC12 (stereo not drawn)
inactive: [4] 97 % of control | [6] 100 % of control | [7] 93 % of control

CC(CN(C)C)CN1c2ccccc2C(C)(C)c2ccccc21 (stereo not drawn)
inactive: dose: 13.8 mg/kg/injection, schedule: Q01DX001 (ip), vehicle: water 101 % of control | dose: 27.5 mg/kg/injection, schedule: Q01DX001 (ip), vehicle: water 104 % of control | dose: 45.0 mg/kg/injection, schedule: Q01DX001 (ip), vehicle: water 98 % of control | dose: 50.0 mg/kg/injection, schedule: Q01DX001 (ip), vehicle: water 91 % of control | dose: 100.0 mg/kg/injection, schedule: Q01DX001 (ip), vehicle: water 91 % of control | dose: 200.0 mg/kg/injection, schedule: Q01DX001 (ip), vehicle: water 91 % of control | dose: 400.0 mg/kg/injection, schedule: Q01DX001 (ip), vehicle: water 97 % of control

C=CCC1C(=O)CC(C)(C)CC1=O
inactive: [8] 103 % of control | [9] 103 % of control | [10] 111 % of control

CCC[CH2][Hg][O]C(C)=O
inactive: dose: 3.13 mg/kg/injection, schedule: Q01DX009 (ip), vehicle: saline sonified 89 % of control | dose: 6.25 mg/kg/injection, schedule: Q01DX009 (ip), vehicle: saline sonified 89 % of control | dose: 6.25 mg/kg/injection, schedule: Q04DX003 (ip), vehicle: Klucel (hydroxypropylcellulose) (HPC) 100 % of control | dose: 12.5 mg/kg/injection, schedule: Q01DX009 (ip), vehicle: saline sonified 87 % of control | dose: 12.5 mg/kg/injection, schedule: Q04DX003 (ip), vehicle: Klucel (hydroxypropylcellulose) (HPC) 92 % of control

CCN(CC)CCNCCO
inactive: dose: 100.0 mg/kg/injection, schedule: Q01DX009 (ip), vehicle: saline 89 % of control | [1] 95 % of control | dose: 200.0 mg/kg/injection, schedule: Q01DX009 (ip), vehicle: saline 94 % of control | [2] 92 % of control | dose: 400.0 mg/kg/injection, schedule: Q01DX009 (ip), vehicle: saline 89 % of control | [3] 92 % of control

O=C(NCCCl)N(O)C12CC3CC(CC(C3)C1)C2
inactive: [11] 90 % of control | [12] 97 % of control | [13] 98 % of control

NC(N)=N/N=C\c1c[nH]c2ccccc12
inactive: dose: 15.0 mg/kg/injection, schedule: Q01DX Z (ip), vehicle: carboxymethylcellulose (CMC) 102 % of control | dose: 30.0 mg/kg/injection, schedule: Q01DX Z (ip), vehicle: carboxymethylcellulose (CMC) 103 % of control | dose: 30.0 mg/kg/injection, schedule: Q01DX Z (oral), vehicle: carboxymethylcellulose (CMC) 89 % of control | dose: 60.0 mg/kg/injection, schedule: Q01DX Z (ip), vehicle: carboxymethylcellulose (CMC) 100 % of control | dose: 60.0 mg/kg/injection, schedule: Q01DX Z (oral), vehicle: carboxymethylcellulose (CMC) 92 % of control | dose: 120.0 mg/kg/injection, schedule: Q01DX Z (oral), vehicle: carboxymethylcellulose (CMC) 96 % of control | dose: 240.0 mg/kg/injection, schedule: Q01DX Z (oral), vehicle: carboxymethylcellulose (CMC) 96 % of control

CCOC(=O)C(C(C)=O)C(c1ccc(OCc2ccccc2)c(C)c1)C(C(C)=O)C(=O)OCC (stereo not drawn)
inactive: [1] 94 % of control | [2] 94 % of control | [3] 95 % of control

O=C(O)c1ccc(/C=C\c2cccc(S(=O)(=O)F)c2)cc1
inactive: [11] 100 % of control | [12] 97 % of control | [13] 92 % of control

C[N+](C)(C)CCCS(=O)(=O)[O-]
inactive: dose: 50.0 mg/kg/injection, schedule: Q01DX001 (sc), vehicle: saline 98 % of control | dose: 100.0 mg/kg/injection, schedule: Q01DX001 (sc), vehicle: saline 98 % of control | dose: 100.0 mg/kg/injection, schedule: Q04DX002 (ip), vehicle: saline 100 % of control | dose: 200.0 mg/kg/injection, schedule: Q01DX001 (sc), vehicle: saline 109 % of control | dose: 200.0 mg/kg/injection, schedule: Q04DX002 (ip), vehicle: saline 111 % of control | dose: 400.0 mg/kg/injection, schedule: Q01DX001 (sc), vehicle: saline 98 % of control | dose: 400.0 mg/kg/injection, schedule: Q04DX002 (ip), vehicle: saline 95 % of control

CS(=O)(=O)OCCN(CCOS(C)(=O)=O)c1ccc(C=Nc2cc(Cl)c(O)c(Cl)c2)cc1
inactive: dose: 20.0 mg/kg/injection, schedule: Q04DX003 (ip), vehicle: Klucel (hydroxypropylcellulose) (HPC) 107 % of control | dose: 40.0 mg/kg/injection, schedule: Q04DX003 (ip), vehicle: Klucel (hydroxypropylcellulose) (HPC) 120 % of control | dose: 80.0 mg/kg/injection, schedule: Q04DX003 (ip), vehicle: Klucel (hydroxypropylcellulose) (HPC) 86 % of control | [5] 110 % of control

O=c1cc(-c2cccs2)ss1
inactive: dose: 100.0 mg/kg/injection, schedule: Q01DX009 (ip), vehicle: saline with Tween-80 89 % of control | [8] 102 % of control | dose: 200.0 mg/kg/injection, schedule: Q01DX009 (ip), vehicle: saline with Tween-80 105 % of control | [9] 94 % of control | dose: 400.0 mg/kg/injection, schedule: Q01DX009 (ip), vehicle: saline with Tween-80 86 % of control | [10] 104 % of control

O=COCC1CCC(COC=O)CC1 (stereo not drawn)
inactive: dose: 222.0 mg/kg/injection, schedule: Q01DX Z (ip), vehicle: methylcellulose (MC) 94 % of control | dose: 333.0 mg/kg/injection, schedule: Q01DX Z (ip), vehicle: methylcellulose (MC) 94 % of control | dose: 500.0 mg/kg/injection, schedule: Q01DX Z (ip), vehicle: methylcellulose (MC) 105 % of control
